≈ marks a conversion by molar mass, not a printed value.
Legend:
Staphylococcus aureus [1] = experiment: In vitro antibacterial activity against Staphylococcus aureus SG 511; type: functional
Salmonella typhimurium = experiment: In vitro antibacterial activity against Salmonella Typhimurium; type: functional, Salmonella enterica subsp. enterica serovar Typhimurium; conditions: Salmonella enterica
Streptococcus pyogenes = experiment: In vitro antibacterial activity against Streptococcus pyogenes 308A; type: functional
Klebsiella aerogenes = experiment: In vitro antibacterial activity against Klebsiella aerogenes 1522E; type: functional
Pseudomonas aeruginosa [2] = experiment: In vitro antibacterial activity against Pseudomonas aeruginosa 9027; type: functional
Escherichia coli [3] = experiment: In vitro antibacterial activity against Escherichia coli 078; type: functional
Pseudomonas aeruginosa [4] = experiment: In vitro antibacterial activity against Pseudomonas aeruginosa 1771M; type: functional
Staphylococcus aureus [5] = experiment: In vitro antibacterial activity against Staphylococcus aureus 503; type: functional
Escherichia coli [6] = experiment: In vitro antibacterial activity against Escherichia coli 1507E; type: functional
Staphylococcus aureus [7] = experiment: In vitro antibacterial activity against Staphylococcus aureus 285; type: functional
Sus scrofa = organism: Sus scrofa; experiment: DHP-I stability of compound relative to t1/2 of hydrolysis to meropenem; type: functional; design: scale not given: the % may be the effect or the level left
Enterobacter cloacae = experiment: In vitro antibacterial activity against Enterobacter cloacae 1321E; type: functional
[8] = Half life of compound after iv administration of 20 mg/kg dose in rat; type: ADME, organism-based; design: dose 20 mg/kg, route intravenous; conditions: in vivo
[9] = Clearance of compound after iv administration of 20 mg/kg dose in rat; type: ADME, organism-based; design: dose 20 mg/kg, route intravenous; conditions: in vivo
[10] = Area under curve of compound after iv administration of 20 mg/kg dose in rat; type: ADME, organism-based; design: dose 20 mg/kg, route intravenous; conditions: in vivo

MIC (Staphylococcus aureus [1]) [µg/mL] | MIC (Salmonella typhimurium) [µg/mL] | MIC (Streptococcus pyogenes) [ng/mL] | MIC (Klebsiella aerogenes) [µg/mL] | MIC (Pseudomonas aeruginosa [2]) [µg/mL] | MIC (Escherichia coli [3]) [µg/mL] | MIC (Pseudomonas aeruginosa [4]) [µg/mL] | MIC (Staphylococcus aureus [5]) [µg/mL] | MIC (Escherichia coli [6]) [µg/mL] | MIC (Staphylococcus aureus [7]) [µg/mL] | MIC (Enterobacter cloacae) [µg/mL] | half-life [8] [min] | clearance [9] [mL/min/kg] | AUC [10] [ng·h/mL] | SMILES | Stability (Sus scrofa) [%]
0.049 (≈ 0.111 µM) | 0.098 (≈ 0.223 µM) | 13 (≈ 0.0296 µM) | 0.098 (≈ 0.223 µM) | 1.56 (≈ 3.56 µM) | 0.025 (≈ 0.0569 µM) | 0.195 (≈ 0.444 µM) | 0.025 (≈ 0.0569 µM) | 0.049 (≈ 0.111 µM) | 0.098 (≈ 0.223 µM) | 0.049 (≈ 0.111 µM) |  |  |  | C[C@@H](O)[C@H]1C(=O)N2C(C(=O)O)=C(S[C@@H]3CN[C@H](CSc4nncn4C)C3)[C@H](C)[C@H]12 | 93
0.098 (≈ 0.194 µM) | 0.049 (≈ 0.0971 µM) | 7 (≈ 0.0139 µM) | 0.049 (≈ 0.0971 µM) | 50 (≈ 99.1 µM) | 0.025 (≈ 0.0495 µM) | 0.781 (≈ 1.55 µM) | 0.025 (≈ 0.0495 µM) | 0.025 (≈ 0.0495 µM) | 0.098 (≈ 0.194 µM) | 0.025 (≈ 0.0495 µM) |  |  |  | C[C@@H](O)[C@H]1C(=O)N2C(C(=O)O)=C(S[C@@H]3CN[C@H](CSc4nccc(C(F)(F)F)n4)C3)[C@H](C)[C@H]12 | 
0.025 (≈ 0.0567 µM) | 0.025 (≈ 0.0567 µM) | 4 (≈ 0.00908 µM) | 0.025 (≈ 0.0567 µM) | 0.781 (≈ 1.77 µM) | 0.025 (≈ 0.0567 µM) | 0.195 (≈ 0.443 µM) | 0.025 (≈ 0.0567 µM) | 0.025 (≈ 0.0567 µM) | 0.049 (≈ 0.111 µM) | 0.025 (≈ 0.0567 µM) | 11 |  |  | C[C@@H](O)[C@H]1C(=O)N2C(C(=O)O)=C(S[C@@H]3CN[C@H](CSc4nnnn4C)C3)[C@H](C)[C@H]12 | 88
 |  |  |  |  |  |  |  |  |  |  | 3.46 |  |  | C[C@@H](O)[C@H]1C(=O)N2C(C(=O)O)=C(SCCNC=N)C[C@H]12.O [IMIPENEM] | 
0.025 (≈ 0.0565 µM) | 0.025 (≈ 0.0565 µM) | 7 (≈ 0.0158 µM) | 0.025 (≈ 0.0565 µM) | 1.56 (≈ 3.53 µM) | 0.013 (≈ 0.0294 µM) | 0.195 (≈ 0.441 µM) | 0.013 (≈ 0.0294 µM) | 0.013 (≈ 0.0294 µM) | 0.049 (≈ 0.111 µM) | 0.013 (≈ 0.0294 µM) | 43.1 | 10.2 | 36900 | C[C@@H](O)[C@H]1C(=O)N2C(C(=O)O)=C(S[C@@H]3CN[C@H](CSc4cnns4)C3)[C@H](C)[C@H]12 | 167
< 0.049 | 0.098 (≈ 0.199 µM) | < 2 | 0.098 (≈ 0.199 µM) | 12.5 (≈ 25.4 µM) | 0.049 (≈ 0.0995 µM) | 1.56 (≈ 3.17 µM) | 0.025 (≈ 0.0507 µM) | 0.098 (≈ 0.199 µM) | < 0.049 | 0.049 (≈ 0.0995 µM) |  |  |  | CNC(=O)c1cccnc1SC[C@@H]1C[C@H](SC2=C(C(=O)O)N3C(=O)[C@H]([C@@H](C)O)[C@H]3[C@H]2C)CN1 | 
0.025 (≈ 0.0554 µM) | 0.195 (≈ 0.432 µM) | < 2 | 0.195 (≈ 0.432 µM) | 25 (≈ 55.4 µM) | 0.195 (≈ 0.432 µM) | 6.25 (≈ 13.8 µM) | 0.195 (≈ 0.432 µM) | 0.195 (≈ 0.432 µM) | 0.049 (≈ 0.109 µM) | 0.098 (≈ 0.217 µM) |  |  |  | C[C@@H](O)[C@H]1C(=O)N2C(C(=O)O)=C(S[C@@H]3CN[C@H](CSc4ncccc4O)C3)[C@H](C)[C@H]12 | 
0.025 (≈ 0.0548 µM) | 0.025 (≈ 0.0548 µM) | 4 (≈ 0.00876 µM) | 0.025 (≈ 0.0548 µM) | 3.12 (≈ 6.84 µM) | 0.007 (≈ 0.0153 µM) | 0.195 (≈ 0.427 µM) | 0.007 (≈ 0.0153 µM) | 0.007 (≈ 0.0153 µM) | 0.025 (≈ 0.0548 µM) | 0.013 (≈ 0.0285 µM) |  |  |  | Cc1nnc(SC[C@@H]2C[C@H](SC3=C(C(=O)O)N4C(=O)[C@H]([C@@H](C)O)[C@H]4[C@H]3C)CN2)s1 | 108
0.049 (≈ 0.109 µM) | 0.098 (≈ 0.217 µM) | 7 (≈ 0.0155 µM) | 0.098 (≈ 0.217 µM) | 25 (≈ 55.5 µM) | 0.049 (≈ 0.109 µM) | 6.25 (≈ 13.9 µM) | 0.025 (≈ 0.0555 µM) | 0.098 (≈ 0.217 µM) | 0.098 (≈ 0.217 µM) | 0.098 (≈ 0.217 µM) |  |  |  | Cc1ccnc(SC[C@@H]2C[C@H](SC3=C(C(=O)O)N4C(=O)[C@H]([C@@H](C)O)[C@H]4[C@H]3C)CN2)n1 | 122
0.025 (≈ 0.0573 µM) | 0.098 (≈ 0.224 µM) | < 2 | 0.098 (≈ 0.224 µM) | 3.12 (≈ 7.16 µM) | 0.049 (≈ 0.112 µM) | 0.391 (≈ 0.896 µM) | 0.025 (≈ 0.0573 µM) | 0.049 (≈ 0.112 µM) | 0.049 (≈ 0.112 µM) | 0.049 (≈ 0.112 µM) |  |  |  | C[C@@H](O)[C@H]1C(=O)N2C(C(=O)O)=C(S[C@@H]3CN[C@H](CSc4ncccn4)C3)[C@H](C)[C@H]12 | 89

SMILES | MIC (Staphylococcus aureus [1]) [µg/mL] | MIC (Salmonella typhimurium) [µg/mL] | MIC (Streptococcus pyogenes) [ng/mL] | MIC (Klebsiella aerogenes) [µg/mL] | MIC (Pseudomonas aeruginosa [2]) [µg/mL] | MIC (Escherichia coli [3]) [µg/mL] | MIC (Pseudomonas aeruginosa [4]) [µg/mL] | MIC (Staphylococcus aureus [5]) [µg/mL] | MIC (Escherichia coli [6]) [µg/mL] | MIC (Staphylococcus aureus [7]) [µg/mL] | MIC (Enterobacter cloacae) [µg/mL] | half-life [8] [min] | clearance [9] [mL/min/kg] | AUC [10] [ng·h/mL] | Stability (Sus scrofa) [%]
C[C@@H](O)[C@H]1C(=O)N2C(C(=O)O)=C(S[C@@H]3CN[C@H](C(=O)N(C)C)C3)[C@H](C)[C@H]12 [MEROPENEM] | 0.195 (≈ 0.509 µM) | 0.049 (≈ 0.128 µM) | 13 (≈ 0.0339 µM) | 0.049 (≈ 0.128 µM) | 0.195 (≈ 0.509 µM) | 0.025 (≈ 0.0652 µM) | 0.049 (≈ 0.128 µM) | 0.098 (≈ 0.256 µM) | 0.025 (≈ 0.0652 µM) | 0.195 (≈ 0.509 µM) | 0.025 (≈ 0.0652 µM) |  |  |  | 100

— ChEMBL document CHEMBL1133947, “Synthesis and biological properties of new 1beta-methylcarbapenems containing heteroaromatic thioether moiety” (Bioorg Med Chem Lett, 2001)
